In patent publication US20060004428A1, “Pyrrolo (3,4-c) carbazole and pyrido (2,3-b) pyrrolo (3,4-e) indole derivatives, preparation method and pharmaceutical compositions containing same” (priority 2002, published 2006):

Columns and labels:
[1] = test system: A549 human non-small-cell lung carcinoma; assay: In vitro cytotoxicity, Microculture Tetrazolium Assay, A549; format: cell-based; details: read-out: IC50, the concentration of cytotoxic agent which inhibits the proliferation of the treated cells by 50%
Protocol: (§1) Four cell lines were used: • L1210 murine leukaemia • A549 human non-small-cell lung carcinoma • HT29 human colon carcinoma • DU145 prostate carcinoma
(§2) L1210 murine leukaemia was used in vitro. The cells are cultured in RPMI 1640 complete culture medium containing 10% foetal calf serum, 2 mM glutamine, 50 units/ml of penicillin, 50 μg/ml of streptomycin and 10 mM Hepes, pH: 7.4. The cells are distributed on microplates and are exposed to the cytotoxic compounds for 4 doubling periods, or 48 hours. The number of viable cells is then quantified by a calorimetric assay, the Microculture Tetrazolium Assay (J. Carmichael et al., Cancer Res.; 47, 936-942 (1987)). The results are expressed as the IC50, the concentration of cytotoxic agent which inhibits the proliferation of the treated cells by 50%.

L1210 murine leukaemia = assay: In vitro cytotoxicity, Microculture Tetrazolium Assay, L1210; format: cell-based; details: Mus musculus, exposure 4 doubling periods, or 48 hours, read-out: IC50, the concentration of cytotoxic agent which inhibits the proliferation of the treated cells by 50%
Protocol: as §1, §2

DU145 prostate carcinoma = assay: In vitro cytotoxicity, Microculture Tetrazolium Assay, DU145; format: cell-based; details: Homo sapiens, DU-145, read-out: IC50, the concentration of cytotoxic agent which inhibits the proliferation of the treated cells by 50%
Protocol: as §1, §2

[2] = test system: HT29 human colon carcinoma; assay: In vitro cytotoxicity, Microculture Tetrazolium Assay, HT29; format: cell-based; details: HT-29, read-out: IC50, the concentration of cytotoxic agent which inhibits the proliferation of the treated cells by 50%
Protocol: as §1, §2

Row | SMILES | melting point | also measured
1 | CN1C(=O)c2c(n3cccc3c3[nH]c4ccccc4c23)C1=O [Example 2, 2-Methylpyrrolo[3′,4′:5,6]indolizino[8,7-b]indole-1,3(2H,8H)dione] | 226 to 228 °C | 
2 | CN1C(=O)c2c(n3cccc3c3[nH]c4ccc(Br)cc4c23)C1=O [Example 8, 11-Bromo-2-methylpyrrolo[3′,4′:5,6]indolizino[8,7-b]indole-1,3(2H,8H)-dione] | > 300 °C | 
3 | O=C1NC(=O)c2c1c1c3cc(Cl)ccc3[nH]c1c1cccn21 [Example 9, 11-Chloropyrrolo[3′,4′:5,6]indolizino[8,7-b]indole-1,3(2H,8H)-dione] | 298 to 304 °C | 
4 | CN1C(=O)C2c3c([nH]c4ncccc34)-c3nccn3C2C1=O (stereo not shown) [Example 19, 6-Methyl-7a,12-dihydroimidazo[1,2-a]pyrido[3′,2′:4,5]pyrrolo[2,3-c]-pyrrolo[3,4-e]pyridine-5,7(4aH,6H)-dione] | 222 to 224 °C | 
5 | CC(=O)OC[C@H]1O[C@@H](n2c3ncccc3c3c4c(n5cncc5c32)C(=O)N(C)C4=O)[C@H](OC(C)=O)[C@@H](OC(C)=O)[C@@H]1OC(C)=O [Example 21, 2-Methyl-8-(2,3,4,6-tetra-O-acetyl-β-D-glucopyranosyl)-imidazo-[1,5-a]pyrido[3′,2′:4,5]pyrrolo[2,3-c]pyrrolo[3,4-e]pyridine-1,3(2H,8H)-dione] | 204 °C | 

Further lines, with some results ahead:

Row | melting point | SMILES | also measured
6 | 218 to 220 °C | O=C1NC(=O)c2c1c1c3ccccc3[nH]c1c1cccn21 [Example 1, Pyrrolo[3′,4′:5,6]indolizino[8,7-b]indole-1,3(2H,8H)dione] | IC50 [1]: 1.99 µM; IC50 (L1210 murine leukaemia): 3.1 µM; IC50 (DU145 prostate carcinoma): 1.4 µM; IC50 [2]: 3.3 µM
7 | 275 °C | O=C1NC(=O)c2c1c1c3cc(OCc4ccccc4)ccc3[nH]c1c1cccn21 [Example 3, 11-(Benzyloxy)pyrrolo[3′,4′:5,6]indolizino[8,7-b]indole-1,3(2H,8H)-dione] | 
8 | > 300 °C | O=C1NC(=O)c2c1c1c3cc(Br)ccc3[nH]c1c1cccn21 [Example 7, 11-Bromopyrrolo[3′,4′:5,6]indolizino[8,7-b]indole-1,3(2H,8H)-dione] | 
9 | 304 to 307 °C | CN1C(=O)c2c(n3cncc3c3[nH]c4ncccc4c23)C1=O [Example 18, 2-Methylimidazo[1,5-a]pyrido[3′,2′:4,5]pyrrolo[2,3-c]pyrrolo[3,4-e]-Pyridine-1,3(2H,8H)-dione] | 
